Reference: US9938263B2, “Gamma-secretase modulators” (The Regents of the University of California, A California …, priority 2013, dated 2018)

What follows are compounds tested on Aβ42 (assay: cell-based moderate throughput Aβ42 ELISA in SH-SY5Y-APP cells). Conditions: Homo sapiens, SH-SY5Y, human SHSY5Y neuroblastoma cells stably overexpressing human APP, Aβ42 secreted into media.
Procedure: A variety of cell lines normally produce and secrete various Aβ peptide alloforms into the media upon culture in supportive media. Examples of cell lines routinely used to assess the ability of a compound to inhibit formation specific Aβ peptide alloforms such as Aβ42, upon treatment of the cells with various concentrations of the compound for approximately 16 h followed by determining the concentration of the various Aβ peptide alloforms in the media both with and without treatment with the compound [(e.g., HEK-293, N2a delta E9/Swe, SHSY5Y and primary cerebral cortical neuronal cultures from embryonic day 18 (E18) embryos from timed pregnant WT Sprague-Dawley rats) (Netzer, W I et al., Gleevec inhibits β-amyloid production but not Notch cleavage. See e.g., Proc. Natl. Acad. Sci. U.S.A. 2003; 100:12444-12449.
The SH-SY5Y-APP human cell line was derived by transfecting a human neuroblastoma (SH-SY5Y) cell line with a plasmid expressing wild type human APP751 cDNA and selecting for stable expression of human APP and human Aβ. In each case, the levels of Aβ42 or Aβtotal or Aβ38 peptides secreted into the media of these cells were measured using either two-site monoclonal antibody (mAb)-based sandwich ELISA assays (described herein for Aβ42 and Aβtotal) or in the case of Aβ38 EC50's, using either the Meso Scale Aβ38, 40, 42 triplex kit along with the Meso Scale Sector Imager 6000 according to the manufacturer's protocols. This SH-SY5Y-APP human cell line was used for all cell-based Aβ peptide immunochemical assays.
SH-SY5Y-APP cells were plated at 75,000 cells/well in 96-well tissue culture plates. After 16-18 h, the culture medium was replaced with fresh medium containing either compound or vehicle. Replicates of 3 wells per test concentration were used, with 10 concentrations at ½ log step intervals. Vehicle (0.12% DMSO) is included as a control.
Compounds disclosed herein were synthesized and assayed for biological activity (EC50) in a cell-based moderate throughput Aβ42 ELISA that utilizes human SHSY5Y neuroblastoma cells stably overexpressing human […] wild-type, as known in the art.

Row | Structure (SMILES) | IC50
1 | COc1nc(-c2csc(N3C/C(=N\O)Cn4nc5c(c43)CCCC5)n2)ccc1-n1cnc(C)c1 [Cmpd 15004] | 55 nM
2 | COc1nc(-c2csc(Nc3c4c(nn3C)CCC4)n2)ccc1-n1cnc(C)c1 [Cmpd 004346] | 77 nM
3 | COc1nc(-c2csc(Nc3c4c(nn3C(C)(C)C)CCCC4)n2)cnc1-n1cnc(C)c1 [Cmpd 004019] | 71 nM
4 | CCn1nc2c(c1Nc1nc(-c3ccc(-n4cnc(C)c4)c(OC)n3)c(CO)s1)CCCC2 [Cmpd 13765] | 35 nM
5 | COc1nc(-c2csc(N3CC(N4CCCC4)Cn4nc5c(c43)CCCC5)n2)ccc1-n1cnc(C)c1 (stereo not drawn) [Cmpd 14946] | 19 nM
6 | COc1nc(-c2csc(N3CC(O)Cn4nc5c(c43)CCC5)n2)ccc1-n1cnc(C)c1 (stereo not drawn) [15495 A] | 53 nM
7 | CCn1nc2c(c1Nc1nc(-c3cnc(-n4cnc(C)c4)c(OC)n3)cs1)CCCC2 [Cmpd 14257] | 89 nM
8 | CCn1nc2c(c1Nc1nc(-c3ccc(-n4cnc(C)c4)c(OC)n3)cs1)CCC2(C)C [Cmpd 004365] | 38 nM
9 | COc1nc(-c2csc(Nc3c4c(nn3CCF)CCCC4)n2)ccc1-n1cnc(C)c1 [Cmpd 13680] | 17 nM
10 | COc1nc(-c2csc(N3CCCn4nc5c(c43)CCC5)n2)ccc1-n1cnc(C)c1 [Cmpd 14035] | 19 nM
11 | CCn1nc2c(c1Nc1nc(-c3ccc(-n4cnc(C)c4)c(OC)n3)cs1)CCC2 [Cmpd 003783] | 33 nM
12 | CCn1nc2c(c1Nc1nc(-c3ccc(-n4cnc(C)c4)c(OC)n3)cs1)CCCC2 [Cmpd 003077] | 56 nM
13 | COc1nc(-c2csc(N3CCC(C(C)(C)O)n4nc5c(c43)CCCC5)n2)ccc1-n1cnc(C)c1 (stereo not drawn) [Cmpd 15002] | 65 nM
14 | COc1nc(-c2csc(N3CC(N4C(=O)CCC4=O)Cn4nc5c(c43)CCCC5)n2)ccc1-n1cnc(C)c1 (stereo not drawn) [Cmpd 14780] | 67 nM
15 | CCn1nc2c(c1Nc1nc(-c3ccc(-n4cnc(C)c4)c(OC)n3)c(CN(C)C)s1)CCCC2 [Cmpd 14508] | 85 nM
16 | COc1nc(-c2csc(N3CC(N(C)C)Cn4nc5c(c43)CCCC5)n2)ccc1-n1cnc(C)c1 (stereo not drawn) [Cmpd 14885] | 59 nM
17 | COc1nc(-c2nc(N3CCCn4nc(C5(C)CC5)cc43)cs2)ccc1-n1cnc(C)c1 [Cmpd 15666] | 18 nM
18 | C=C1CN(c2nc(-c3ccc(-n4cnc(C)c4)c(OC)n3)cs2)c2c3c(nn2C1)CCCC3 [Cmpd 14945] | 35 nM
19 | CCn1nc(C2(C)CC2)cc1Nc1csc(-c2ccc(-n3cnc(C)c3)c(OC)n2)n1 [Cmpd 15587] | 14 nM
20 | COc1nc(-c2nc(N3CC(C)Cn4nc(C5(C)CC5)cc43)cs2)ccc1-n1cnc(C)c1 (stereo not drawn) [Cmpd 15868] | 30 nM
21 | COc1nc(-c2csc(N3C/C(=N\O)Cn4nc5c(c43)CCC5)n2)ccc1-n1cnc(C)c1 [Cmpd 14839] | 57 nM
22 | COc1nc(-c2csc(Nc3c4c(nn3CC(F)(F)F)CCC4)n2)ccc1-n1cnc(C)c1 [Cmpd 004723] | 35 nM
23 | COc1nc(-c2csc(N3CC(O)(CO)Cn4nc5c(c43)CCCC5)n2)ccc1-n1cnc(C)c1 (stereo not drawn) [Cmpd 15001] | 34 nM

Row | Structure (SMILES) | IC50
24 | COc1nc(-c2nc(Nc3c4c(nn3CCF)CCCC4)cs2)ccc1-n1cnc(C)c1 [Cmpd 15717] | 48 nM
25 | COc1nc(-c2csc(Nc3c4c(nn3CC(C)(C)O)CCCC4)n2)ccc1-n1cnc(C)c1 [Cmpd 13674] | 20 nM
26 | COc1nc(-c2nc(Nc3c4c(nn3CCF)CCCC4)sc2CN2CCC(F)(F)C2)ccc1-n1cnc(C)c1 [Cmpd 15473] | 99 nM
27 | COc1nc(-c2csc(Nc3cc(C4(C(F)(F)F)CC4)nn3C)n2)ccc1-n1cnc(C)c1 [Cmpd 13887] | 11 nM
28 | COc1nc(-c2csc(Nc3c4c(nn3CCF)CCC4)n2)ccc1-n1cnc(C)c1 [Cmpd 14106] | 64 nM
29 | COc1nc(-c2csc(N3CC(F)Cn4nc5c(c43)CCCC5)n2)ccc1-n1cnc(C)c1 (stereo not drawn) [Cmpd 14676] | 10 nM
30 | COc1nc(-c2csc(Nc3cc(C4(C)CC4)nn3CCF)n2)ccc1-n1cnc(C)c1 [Cmpd 13922] | 67 nM
31 | CCn1nc(C2(C)CC2)cc1Nc1nc(-c2ccc(-n3cnc(C)c3)c(OC)n2)cs1 [Cmpd 13563] | 24 nM
32 | COc1nc(-c2nc(N3CC(C)Cn4nc5c(c43)CCC5)cs2)ccc1-n1cnc(C)c1 (stereo not drawn) [Cmpd 15670] | 16 nM
33 | CCn1nc(C(F)(F)F)cc1Nc1nc(-c2ccc(-n3cnc(C)c3)c(OC)n2)cs1 [Cmpd 004102] | 57 nM
34 | COc1nc(-c2nc(N3CC(C)Cn4nc5c(c43)CCCC5)cs2)ccc1-n1cnc(C)c1 (stereo not drawn) [Cmpd 15830] | 12 nM
35 | COc1nc(-c2csc(Nc3cc(C4(C)CC4)nn3CC(F)(F)F)n2)ccc1-n1cnc(C)c1 [Cmpd 13921] | 27 nM
36 | COc1nc(-c2csc(Nc3cc(C4(C)CC4)nn3C)n2)ccc1-n1cnc(C)c1 [Cmpd 13886] | 75 nM
37 | COc1nc(-c2csc(Nc3c4c(nn3CC(C)(C)O)CCC4)n2)ccc1-n1cnc(C)c1 [Cmpd 14104] | 39 nM
38 | COc1nc(-c2nc(N3CCCn4nc5c(c43)CCC5)cs2)ccc1-n1cnc(C)c1 [Cmpd 15669] | 5 nM
39 | CCn1nc2c(c1Nc1csc(-c3ccc(-n4cnc(C)c4)c(OC)n3)n1)CCCC2 [Cmpd 14777] | 22 nM
40 | COc1nc(-c2nc(Nc3cc(C4(C)CC4)nn3CCF)cs2)ccc1-n1cnc(C)c1 [Cmpd 15746] | 56 nM
41 | COc1nc(-c2csc(N3CCCn4nc5c(c43)CCCC5)n2)ccc1-n1cnc(C)c1 [Cmpd 13636] | 6 nM
42 | CCn1nc2c(c1Nc1nc(-c3ccc(-n4cnc(C)c4)c(OC)n3)c(CN3CCN(C)CC3)s1)CCCC2 [Cmpd 14548] | 98 nM
43 | COc1nc(-c2nc(Nc3c4c(nn3CCF)CCCC4)sc2CN2CCN(C)CC2)ccc1-n1cnc(C)c1 [Cmpd 15003] | 50 nM
44 | COc1nc(-c2nc(N3CCCn4nc5c(c43)CCCC5)ns2)ccc1-n1cnc(C)c1 [Cmpd 16211] | 41 nM
45 | COc1nc(-c2nc(N3CCCn4nc5c(c43)CCCC5)cs2)ccc1-n1cnc(C)c1 [Cmpd 15635] | 7 nM
46 | CO/N=C1\CN(c2nc(-c3ccc(-n4cnc(C)c4)c(OC)n3)cs2)c2c3c(nn2C1)CCCC3 [Cmpd 15188] | 76 nM

Same assay, conditions: human SHSY5Y neuroblastoma cells stably overexpressing human APP, Aβ42 secreted into media

Row | Structure (SMILES) | IC50
47 | COc1nc(-c2csc(N3CC(O)Cn4nc5c(c43)CCCC5)n2)ccc1-n1cnc(C)c1 (stereo not drawn) [14789 B] | 30 nM
48 | COc1nc(-c2csc(N3CC(O)Cn4nc5c(c43)CCC5)n2)ccc1-n1cnc(C)c1 (stereo not drawn) [15496 B] | 33 nM
49 | COc1nc(-c2csc(N3CC(O)Cn4nc5c(c43)CCCC5)n2)ccc1-n1cnc(C)c1 (stereo not drawn) [Cmpd 14507] | 17 nM
50 | COc1nc(-c2csc(N3CC(O)Cn4nc5c(c43)CCCC5)n2)ccc1-n1cnc(C)c1 (stereo not drawn) [14789 A] | 5 nM
51 | COc1nc(-c2csc(N3CC(O)Cn4nc5c(c43)CCC5)n2)ccc1-n1cnc(C)c1 (stereo not drawn) [Cmpd 14200] | 44 nM
